This is an account of results in patent US20130090494A1, “TETRAKIS[BIS(DIHYDROXYPHOSPHORYL)METHYL]CALIX[4]ARENE OR ITS SODIUM SALT THEREOF AS FIBRIN POLYMERIZATION INHIBITORS” (priority 2010, published 2013).

Each structure is given as a SMILES string. Entries after “also recorded” stand apart in the source; their conditions may differ. Structures can show the parent of a compound that is named as a salt.

The target of data set [1] is T1, desAABB fibrin monomer polymerization (Homo sapiens, UniProt P02671+P02675+P02679).
T1 construct: DesAABB fibrin monomer was prepared in 0.02 M acetic acid was prepared during reaction fibrinogen+thrombin; The fibrinogen was prepared by sodium sulfate precipitation from human plasma; from tissue; host or cells: human blood plasma; fibrinogen converted with thrombin
T1 sequence (P02671 36-866 limits assumed): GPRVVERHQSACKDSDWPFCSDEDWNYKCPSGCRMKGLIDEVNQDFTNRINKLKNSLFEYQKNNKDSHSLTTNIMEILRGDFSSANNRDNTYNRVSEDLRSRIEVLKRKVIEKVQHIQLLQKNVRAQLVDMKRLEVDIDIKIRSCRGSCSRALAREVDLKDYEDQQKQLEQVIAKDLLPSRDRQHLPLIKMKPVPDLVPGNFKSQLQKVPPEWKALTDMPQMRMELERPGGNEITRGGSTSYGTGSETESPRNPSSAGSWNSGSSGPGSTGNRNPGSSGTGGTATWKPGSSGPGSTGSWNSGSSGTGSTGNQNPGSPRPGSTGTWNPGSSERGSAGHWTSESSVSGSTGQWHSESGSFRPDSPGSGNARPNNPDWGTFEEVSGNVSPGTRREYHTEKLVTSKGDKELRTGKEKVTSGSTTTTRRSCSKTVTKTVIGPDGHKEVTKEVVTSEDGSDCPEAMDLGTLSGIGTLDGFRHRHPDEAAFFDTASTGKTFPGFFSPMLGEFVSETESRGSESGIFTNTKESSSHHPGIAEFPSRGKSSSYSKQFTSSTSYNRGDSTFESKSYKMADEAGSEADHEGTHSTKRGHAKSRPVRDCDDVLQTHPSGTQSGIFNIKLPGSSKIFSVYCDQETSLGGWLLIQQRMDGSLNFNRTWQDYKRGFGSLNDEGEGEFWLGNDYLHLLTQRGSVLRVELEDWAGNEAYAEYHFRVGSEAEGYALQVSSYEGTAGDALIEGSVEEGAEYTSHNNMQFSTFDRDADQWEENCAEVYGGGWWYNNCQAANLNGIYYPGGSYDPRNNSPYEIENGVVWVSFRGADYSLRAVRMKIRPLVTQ
T1 sequence (P02675 45-491 limits assumed): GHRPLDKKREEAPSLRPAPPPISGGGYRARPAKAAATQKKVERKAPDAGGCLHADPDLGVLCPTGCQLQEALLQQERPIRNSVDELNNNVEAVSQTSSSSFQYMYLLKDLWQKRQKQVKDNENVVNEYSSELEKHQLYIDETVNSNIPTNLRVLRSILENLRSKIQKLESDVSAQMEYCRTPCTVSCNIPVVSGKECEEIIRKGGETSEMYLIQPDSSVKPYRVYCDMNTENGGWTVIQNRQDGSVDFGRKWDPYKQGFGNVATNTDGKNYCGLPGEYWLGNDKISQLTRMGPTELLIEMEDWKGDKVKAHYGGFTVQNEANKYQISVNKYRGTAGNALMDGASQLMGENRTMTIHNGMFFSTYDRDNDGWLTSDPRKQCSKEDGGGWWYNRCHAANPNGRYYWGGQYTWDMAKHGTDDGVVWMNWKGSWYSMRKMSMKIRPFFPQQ
T1 sequence (P02679 27-453): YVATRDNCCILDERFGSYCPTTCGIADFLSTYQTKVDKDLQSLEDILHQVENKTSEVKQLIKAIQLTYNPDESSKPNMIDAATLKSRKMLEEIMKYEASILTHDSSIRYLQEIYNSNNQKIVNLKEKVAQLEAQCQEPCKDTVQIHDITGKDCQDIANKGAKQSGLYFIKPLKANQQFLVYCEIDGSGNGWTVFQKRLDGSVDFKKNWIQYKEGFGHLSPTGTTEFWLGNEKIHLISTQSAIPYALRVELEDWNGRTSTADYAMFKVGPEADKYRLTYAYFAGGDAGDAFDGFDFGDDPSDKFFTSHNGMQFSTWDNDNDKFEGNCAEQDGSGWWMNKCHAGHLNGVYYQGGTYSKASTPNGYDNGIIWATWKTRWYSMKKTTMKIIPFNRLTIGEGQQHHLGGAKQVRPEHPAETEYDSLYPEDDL
The data set can be described thus: Turbidity analysis of desAABB fibrin monomer polymerization. In kind it is biochemical. To be noted: for final (maximum) turbidity of fibrin clot (Δh) / lag-time (τ) / maximum rate of fibrin polymerization (Vmax): desAABB fibrin polymerization medium, 0.5 μM, FIG. 2. As for the experimental part: (§1) The fibrin polymerization by the action of thrombin on fibrinogen consists of two reactions: 1) thrombin-catalyzed conversion of fibrinogen to fibrin and 2) polymerization of the fibrin monomer to form three-dimensional network, which is the framework of thrombus.
(§2) The turbidity analysis of desAABB fibrin polymerization and of fibrin polymerization in the fibrinogen+thrombin reaction in the present and the absent of declared calixarenes C-192 and C-145
(§3) The fibrinogen was prepared by sodium sulfate precipitation from human plasma. DesAABB fibrin monomer was prepared in 0.02 M acetic acid was prepared during reaction fibrinogen+thrombin [10]. Polymerization of fibrin desAA and desAABB was studied in the polymerization medium containing at a low concentration thrombin at pH 5.3 [7]. In the experience of the system fibrinogen+thrombin in polymerization medium to add declared calixarene C-192 at a concentration of 0.5 mM.
The declared calixarene C-192 and C-145 was added on the desAABB fibrin polymerization medium at a concentration of 0.5 μM.

In data set [2] the target is T2, fibrin polymerization (Homo sapiens, UniProt P02671+P02675+P02679).
T2 sequence (P02671 20-644 isoform P02671-2 limits assumed): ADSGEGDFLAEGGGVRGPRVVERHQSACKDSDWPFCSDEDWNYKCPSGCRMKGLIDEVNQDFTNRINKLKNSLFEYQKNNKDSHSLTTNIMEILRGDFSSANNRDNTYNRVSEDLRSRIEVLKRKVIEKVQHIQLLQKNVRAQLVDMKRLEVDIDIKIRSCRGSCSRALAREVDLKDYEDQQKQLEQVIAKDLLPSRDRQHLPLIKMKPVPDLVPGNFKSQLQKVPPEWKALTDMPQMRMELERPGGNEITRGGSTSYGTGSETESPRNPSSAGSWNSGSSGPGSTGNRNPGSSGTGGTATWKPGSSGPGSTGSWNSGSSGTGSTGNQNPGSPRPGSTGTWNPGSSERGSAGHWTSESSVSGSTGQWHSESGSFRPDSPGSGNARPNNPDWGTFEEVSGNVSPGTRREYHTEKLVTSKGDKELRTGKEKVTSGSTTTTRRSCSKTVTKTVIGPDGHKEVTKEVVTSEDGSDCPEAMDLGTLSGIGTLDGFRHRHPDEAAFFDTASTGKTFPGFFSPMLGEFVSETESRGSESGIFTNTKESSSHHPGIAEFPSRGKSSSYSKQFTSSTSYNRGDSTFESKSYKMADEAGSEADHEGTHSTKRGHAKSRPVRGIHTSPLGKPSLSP
T2 sequence (P02675 45-491 limits assumed): T1 sequence (P02675 45-491 limits assumed)
T2 sequence (P02679 27-437 isoform P02679-2 limits assumed): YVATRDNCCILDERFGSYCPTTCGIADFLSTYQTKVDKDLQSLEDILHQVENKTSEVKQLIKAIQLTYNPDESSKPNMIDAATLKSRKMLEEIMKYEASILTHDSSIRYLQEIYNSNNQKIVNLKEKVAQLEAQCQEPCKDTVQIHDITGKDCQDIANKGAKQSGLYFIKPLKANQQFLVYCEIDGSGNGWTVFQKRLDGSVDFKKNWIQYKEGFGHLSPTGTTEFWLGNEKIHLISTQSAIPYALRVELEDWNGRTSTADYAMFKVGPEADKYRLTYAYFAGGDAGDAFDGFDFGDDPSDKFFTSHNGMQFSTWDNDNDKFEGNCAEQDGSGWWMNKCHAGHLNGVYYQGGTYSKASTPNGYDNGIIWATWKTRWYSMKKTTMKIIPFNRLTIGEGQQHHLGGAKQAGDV
The data set can be described thus: Turbidity analysis of fibrin polymerization (system not specified). The conditions noted are these: applicant's own experiments. In kind it is biochemical. The text has this: Furthermore, because of electro neutrality of the declared calixarene-145 molecule, it may be more suitable for injection to a living organism as an inhibitor of fibrin polymerization and the process of blood clotting, as well.

In data set [3] the target is T3, fibrin polymerization in the thrombin-fibrinogen reaction (Homo sapiens, UniProt P02671+P02675+P02679).
T3 construct: The fibrinogen was prepared by sodium sulfate precipitation from human plasma; from tissue; host or cells: human blood plasma
T3 sequence (P02671 20-644 isoform P02671-2 limits assumed): T2 sequence (P02671 20-644 isoform P02671-2 limits assumed)
T3 sequence (P02675 45-491 limits assumed): T1 sequence (P02675 45-491 limits assumed)
T3 sequence (P02679 27-437 isoform P02679-2 limits assumed): T2 sequence (P02679 27-437 isoform P02679-2 limits assumed)
The data set is described as follows: Turbidity analysis of fibrin polymerization in the thrombin-fibrinogen reaction. It is filed as biochemical. The procedure:
as §1, §2, §3

Data set [4] deals with T4, fibrin protofibril formation (Homo sapiens, UniProt P02671+P02675+P02679).
T4 construct: The fibrinogen was prepared by sodium sulfate precipitation from human plasma; from tissue; host or cells: human blood plasma
T4 sequence (P02671 20-644 isoform P02671-2 limits assumed): T2 sequence (P02671 20-644 isoform P02671-2 limits assumed)
T4 sequence (P02675 45-491 limits assumed): T1 sequence (P02675 45-491 limits assumed)
T4 sequence (P02679 27-437 isoform P02679-2 limits assumed): T2 sequence (P02679 27-437 isoform P02679-2 limits assumed)
The data set can be described thus: Transmission electron microscopy of fibrin formed in the thrombin-fibrinogen reaction. To be noted: 50000 magnification, FIG. 4. It is filed as biochemical. The text has this:
The study of desAABB fibrin polymerization in the thrombin-fibrinogen reaction by transmission electron microscopy in the present and the absent of declared calixarenes C-192 and C-145
The analysis of the electron micrographs of the fibrin formed in the fibrinogen+thrombin reaction at different time intervals after the polymerization process beginning in the absence of calixarene C-192 (FIG. 4, A and B) and in the presence of calixarene C-192 (FIG. 4, C, D).
The samples of polymerizing fibrin produced in the thrombin-fibrinogen reaction in the absence or the presence of calixarene C-192 were taken out of the reaction medium at various times, placed on a carbon-coated grid for 2 min and then stained with 1% (w/v) uranyl acetate for 1 min. Transmission electron microscopy was performed with an H-600 electron microscope (Hitachi, Tokyo, Japan). Electron micrographs were obtained at −50 000 magnification.

For data set [5], the system named is human blood plasma coagulation (outer pathway). The data set is described as follows: Prothrombin time (PT) of human blood plasma. As for the experimental part: (§4) The measuring of prothrombin time (PT) and activated partial thromboplastin time (APTT) for coagulation of human plasma in the presence of calixarene C-192.
(§5) The effects of calixarene C-192 on the coagulation of human blood plasma were studied using a coagulometer (CT 2410 ‘Solar’, Belarus).
Using coagulometer measured the prothrombin ratio, which is calculated using the formula: […]
where: PR—prothrombin ratio; PTe—prothrombin time in the investigating blood plasma; PTc—prothrombin time in the control blood plasma.
The prothrombin time were calculated using the method. The dissolved calixarene C-192 at concentration of 50 μM was added to cuvette in the experience. The prothrombin ratio calculating by formula (I) equals 1.6.

Data set [6] concerns human blood plasma coagulation (internal pathway). The data set is described as follows: Activated partial thromboplastin time (APTT) of human blood plasma.
From the text: as §4, §5
The activated partial thromboplastin time calculated by the method. In the APTT-test comparing the formation of the fibrin clot in control samples: pure blood plasma specimens and blood plasma, in which the solute of calixarene C-192 at concentration of 50 μM. The prothrombin ratio Calculated by formula (1) equals 5.4.

A short description of data set [7]: Acute toxicity in healthy adult mice. To be noted: mouse, in vivo, oral; healthy adult mice, perorally.
Data set [8] concerns mice. The data set is described as follows: Acute toxicity in healthy adult mice. To be noted: mouse, in vivo.
[9] abbreviates: fibrinogen+thrombin system, C-192 at 0.5 mM, FIG. 1.
The mark [10] stands for this setting: normal human blood plasma, FIG. 3.

For the molecule `O=P(O)(O)C(c1cc2c(O)c(c1)Cc1cc(C(P(=O)(O)O)P(=O)(O)O)cc(c1O)Cc1cc(C(P(=O)(O)O)P(=O)(O)O)cc(c1O)Cc1cc(C(P(=O)(O)O)P(=O)(O)O)cc(c1O)C2)P(=O)(O)O` [calixarene C-145, octasodium salt of 5,11,17,23-tetrakis [bis](dihydroxyphosphoryl)methyl calix[4]arene], in data set [1] (listed as C-145), the “final (maximum) turbidity of fibrin clot (Δh)” value is “significantly decreased”, the “lag-time (τ)” value is “increases; also recorded: increased significantly” and the “maximum rate of fibrin polymerization (Vmax)” value (“maximum rate” below) is “significantly decreased”. In data set [2], inhibition was half-maximal at 2500 nM (IC50).
`O=P(O)(O)C(c1cc2c(O)c(c1)Cc1cc(C(P(=O)(O)O)P(=O)(O)O)cc(c1O)Cc1cc(C(P(=O)(O)O)P(=O)(O)O)cc(c1O)Cc1cc(C(P(=O)(O)O)P(=O)(O)O)cc(c1O)C2)P(=O)(O)O` [calixarene C-192, 5,11,17,23-tetrakis[bis(dihydroxyphosphoryl)methyl]calix[4]arene]: in data set [3] (setting [9]), the “final turbidity of fibrin clot (Δh)” value is given as “decreased; also recorded: reduced”, the “lag-time (τ)” value is on record as “increases; also recorded: significantly increased” and the “maximum rate” value is given as “significantly decreased; also recorded: greatly reduced”. This molecule also gave an IC50 in data set [3] (turbidity analysis, thrombin-fibrinogen reaction) of 500 nM. In addition, in data set [1] (listed as C-192), the “final (maximum) turbidity of fibrin clot (Δh)” value is listed as “decreased”, the “lag-time (τ)” value is given as “increased significantly” and the “maximum rate” value is on record as “decreased”. Inhibition in data set [1] (fibrin monomer polymerization) was half-maximal at 1000 nM (IC50). Also, the “effect on fibrin polymerization stage seen by electron microscopy” value in data set [4] was “inhibits the first stage of fibrin polymerization protofibril formation; also recorded: inhibits the first stage of fibrin polymerization protofibril building”. Also, the “concentration that doubles the prothrombin time (PT)” value in data set [5] (setting [10]) is given as 7.0·10^−5 M. For the same molecule, in data set [5] (prothrombin time, human plasma, 50 μM), the “prothrombin ratio (PR=PTe/PTc)” value is 1.6. Besides, the “prothrombin ratio calculated by formula (1) in the APTT-test” value in data set [6] (APTT-test, human plasma, 50 μM) is 5.4. The “concentration that doubles the APTT” value in data set [6] (setting [10]) was 1.7·10^−5 M. This molecule also registered an LD50 in data set [7] of 780 mg/kg. The toxicity class result in data set [8] is recorded as “median toxic compound”.
